Measured values from US20020142993A1, “Pharmaceutically acceptable salts of bicyclic compounds” (DR. REDDY'S LABORATORIES LTD., priority 2000, published 2002).
Structures can show the parent of a compound that is named as a salt.

Tests used:
Swiss albino mice = test: Plasma triglyceride and total cholesterol lowering activity in Swiss albino mice and guinea pigs; type: in vivo, mouse; details: dose 3 mg/kg, oral, 6 days
Description: c) Plasma Triglyceride and Total Cholesterol Lowering Activity in Swiss Albino Mice and Guinea Pigs
Male Swiss albino mice (SAM) and male Guinea pigs were obtained from NIN and housed in DRF animal house. All these animals were maintained under 12 hour light and dark cycle at 25±1° C. Animals were given standard laboratory chow (NIN, Hyderabad, India) and water, ad libitum. SAM of 20-25 g body weight range and Guinea pigs of 500-700 g body weight range were used (Oliver, P., Plancke, M. O., Marzin, D., Clavey, V., Sauzieres, J and Fruchart, J. C. Effects of fenofibrate, gemfibrozil and nicotinic acid on plasma lipoprotein levels in normal and hyperlipidemic mice. Atherosclerosis. 1988. 70: 107-114).
The test compounds were administered orally to Swiss albino mice at 0.3 to 30 mg/kg/day dose for 6 days. Control mice were treated with vehicle (0.25% Carboxymethylcellulose; dose 10 ml/kg). The test compounds were administered orally to Guinea pigs at 0.3 to 30 mg/kg/day dose for 6 days. Control animals were treated with vehicle (0.25% Carboxymethylcellulose; dose 5 ml/kg).
The blood samples were collected in fed state 1 hour after drug administration on 0 and 6 day of treatment. The blood was collected from the retro-orbital sinus through heparinised capillary in EDTA containing tubes. After centrifugation, plasma sample was separated for triglyceride and total cholesterol (Wieland, O. Methods of Enzymatic analysis. Bergermeyer, H. O., Ed., 1963. 211-214; Trinder, P. Ann. Clin. Biochem. 1969. 6: 24-27). Measurement of plasma triglyceride, total cholesterol and HDL were done using commercial kits (Dr. Reddy's Diagnostic Division, Hyderabad, India).
(§1) 1. Percent reduction in Blood sugar/triglycerides/total cholesterol were calculated according to the formula: [formula]

hPPARα = molecular target: T1, hPPARα (Homo sapiens, UniProt Q07869); test: Determination of hPPARα activity (GAL4-LBD luciferase reporter in HEK-293 cells); type: cell-based; details: 50 μM compound, transfected HEK-293 cells
T1 construct: expressed in transfected cells; host or cells: HEK-293
T1 sequence (Q07869 239-466 limits assumed): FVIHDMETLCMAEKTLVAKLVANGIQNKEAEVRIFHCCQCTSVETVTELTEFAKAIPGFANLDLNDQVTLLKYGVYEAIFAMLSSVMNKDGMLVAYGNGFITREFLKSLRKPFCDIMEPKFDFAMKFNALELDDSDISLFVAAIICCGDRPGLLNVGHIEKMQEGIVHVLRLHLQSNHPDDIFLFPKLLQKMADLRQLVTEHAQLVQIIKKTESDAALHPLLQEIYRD
Description: a) Determination of hPPARα Activity
Ligand binding domain of hPPARα was fused to DNA binding domain of Yeast transcription factor GAL4 in eucaryotic expression vector. Using superfect (Qiagen, Germany) as transfecting reagent HEK-293 cells were transfected with this plasmid and a reporter plasmid harboring the luciferase gene driven by a GAL4 specific promoter. Compound was added at different concentrations after 42 hrs of transfection and incubated overnight. Luciferase activity as a function of compound binding/activation capacity of PPARα was measured using Packard Luclite kit (Packard, USA) in Top Count (Ivan Sadowski, Brendan Bell, Peter Broag and Melvyn Hollis. Gene. 1992. 118: 137 -141; Superfect Transfection Reagent Handbook. February 1997, Qiagen, Germany).

hPPARγ1 = molecular target: T2, hPPARγ1 (Homo sapiens, UniProt P37231); test: Determination of hPPARγ activity (GAL4-LBD luciferase reporter in HEK-293 cells); type: cell-based; details: 1 μM compound, transfected HEK-293 cells
T2 construct: expressed in transfected cells; host or cells: HEK-293
T2 sequence (P37231 238-503 limits assumed): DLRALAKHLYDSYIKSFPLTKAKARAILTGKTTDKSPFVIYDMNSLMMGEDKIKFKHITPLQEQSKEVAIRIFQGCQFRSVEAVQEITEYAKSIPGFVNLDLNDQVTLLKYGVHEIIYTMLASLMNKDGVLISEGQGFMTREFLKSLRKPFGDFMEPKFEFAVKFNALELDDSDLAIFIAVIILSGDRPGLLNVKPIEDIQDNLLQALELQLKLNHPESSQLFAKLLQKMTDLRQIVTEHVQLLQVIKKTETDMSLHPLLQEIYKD
Description: b) Determination of hPPARγ Activity
Ligand binding domain of hPPARγ1 was fused to DNA binding domain of Yeast transcription factor GAL4 in eucaryotic expression vector. Using lipofectamine (Gibco BRL, USA) as transfecting reagent HEK-293 cells were transfected with this plasmid and a reporter plasmid harboring the luciferase gene driven by a GAL4 specific promoter. Compound was added at 1 μM concentration after 48 hrs of transfection and incubated overnight. Luciferase activity as a function of drug binding/activation capacity of PPARγ1 was measured using Packard Luclite kit (Packard, USA) in Packard Top Count (Ivan Sadowski, Brendan Bell, Peter Broag and Melvyn Hollis. Gene. 1992. 118: 137-141; Guide to Eukaryotic Transfections with Cationic Lipid Reagents. Life Technologies, GIBCO BRL, USA).

C57BL/KsJ-db/db mice = test: Blood sugar and triglyceride lowering in db/db mice; type: in vivo, mouse; details: dose 0.03 mg/kg, oral gavage daily for 6 days
Description: Mutation in colonies of laboratory animals and different sensitivities to dietary regimens have made the development of animal models with non-insulin dependent diabetes and hyperlipidemia associated with obesity and insulin resistance possible. Genetic models such as db/db and ob/ob (Diabetes, (1982)31(1): 1-6) mice and zucker fa/fa rats have been developed by the various laboratories for understanding the pathophysiology of disease and testing the efficacy of new antidiabetic compounds (Diabetes, (1983)32: 830-838; Annu. Rep. Sankyo Res. Lab. (1994).46:1-57). […]
The random blood sugar and triglyceride levels were measured by collecting blood (100 μl) through orbital sinus, using heparinised capillary in tubes containing EDTA which was centrifuged to obtain plasma. The plasma glucose and triglyceride levels were measured spectrometrically, by glucose oxidase and glycerol 3 PO4 oxidase/peroxidase enzyme (Dr. Reddy's Lab. Diagnostic Division Kits, Hyderabad, India) methods respectively.
The blood sugar and triglycerides lowering activities of the test compound was calculated according to the formula.
as §1

[1] = Single dose oral pharmacokinetic studies; type: in vivo; details: male Wistar rats, suspension in 0.25% sodium CMC
Description: Single Dose Oral Pharmacokinetic Studies
Male Wistar rats (220-250 gm) were used in the experiments. The animals were maintained under standard laboratory conditions and had free access to feed and water ad libitum. Before experimentation animals were fasted overnight (˜15 h) during which they had free access to water ad libitum.
An amount equivalent to 30 mg of drug was weighed accurately and transferred into a clean mortar and triturated to obtain a fine powder. To this 0.5 ml of 0.25% sodium carboxy methyl cellulose (sodium CMC) was added to obtain a paste. To the obtained paste remaining 2.5 ml of sodium CMC was added to make up the volume to 3 ml. Based on the animal weight appropriate volume (body weight×3) of the prepared suspension was administered through oral gavage.
After dosing, at designated time points (0.5, 1, 2, 3, 5, 8, 12 and 24 h) 200 μl of blood was collected from retro orbital plexus into 0.5 ml eppendorff tubes containing EDTA (10 μl of 200 mg/ml solution in Milli Q water). Blood was centrifuged at 12,800 rpm for 5 min and obtained plasma and stored at −20° C. till further analysis.
100 μl plasma was transferred into a clean and dry centrifuge tube. To this internal standard (10 μl of 100 μg/ml) was added and extracted with 2 ml of extraction recovery solvent. The contents were vortexed for 2 min, followed by centrifugation for 10 min at 2800 rpm. Clear organic layer (2×0.75 ml) was separated and dried under nitrogen gas at 50° C. The residue was reconstituted with 150 μl of mobile phase and vortexed for 20 sec, from this 50 μl was injected onto HPLC column.
Pharmacokinetic parameters were calculated by non-compartmental model analysis. The peak plasma concentration (Cmax) and the corresponding time (Tmax) were directly obtained from the raw data. The area under the plasma concentration versus time curve up to the last quantifiable time point, AUC(0-t) was obtained by the linear and log-linear trapezoidal summation. The AUC(0-t) extrapolated to infinity (i.e., AUC(0-∞)) by adding the quotient of Clast/Kel, where Clast represents the last measurable time concentration and Kel represents the apparent terminal rate constant. Kel was calculated by the linear regression of the log-transformed concentrations of the drug in the terminal phase. The half-life of the terminal elimination phase was obtained using the relationship

Row | SMILES | melting point [°C] | Triglyceride Lowering (%) (Swiss albino mice) | PPARα (luciferase activity) (hPPARα) | PPARγ (luciferase activity) (hPPARγ1) | also measured
1 | CCO[C@@H](Cc1ccc(OCCN2CCSc3ccccc32)cc1)C(=O)O (as salt: salt) [Example 1] | 126 to 128 | – | – | – | –
2 | CCO[C@@H](Cc1ccc(OCCN2CCSc3ccccc32)cc1)C(=O)O (as salt: salt) [Example 2, Metformin salt of (−)-3-[4-[2-(3,4-dihydro-2H-1,4-benzothiazin-4-yl)ethoxy]phenyl]-2-ethoxy propanoic acid] | 155 to 158 | – | – | – | –
3 | CCO[C@@H](Cc1ccc(OCCN2CCSc3ccccc32)cc1)C(=O)O (as salt: salt) [Example 3, Dicyclohexylamine salt of (−)-3-[4-[2-(3,4-dihydro-2H-1,4-benzothiazin-4-yl)ethoxy]phenyl]-2-ethoxy propanoic acid] | 110 | – | – | – | –
4 | CCO[C@@H](Cc1ccc(OCCN2CCSc3ccccc32)cc1)C(=O)O (as salt: salt) [Example 5, -Lysine salt of (−)-3-[4-[2-(3,4-dihydro-2H-1,4-benzothiazin-4-yl)ethoxy]phenyl]-2-ethoxy propanoic acid] | 142 to 144 | – | – | – | –
5 | CCOC(Cc1ccc(OCCN2CCSc3ccccc32)cc1)C(=O)O (stereo in doubt) [Example 4, (R)-(+)-Methyl benzylamine salt of (−)-3-[4-[2-(3,4-dihydro-2H-1,4-benzothiazin-4-yl)ethoxy]phenyl]-2-ethoxy propanoic acid] | – | 55 | – | – | –
6 | CCO[C@@H](Cc1ccc(OCCN2CCSc3ccccc32)cc1)C(=O)O [Example 1] | – | 66 | – | – | –
7 | CCO[C@@H](Cc1ccc(OCCN2CCSc3ccccc32)cc1)C(=O)O [Example 2, Metformin salt of (−)-3-[4-[2-(3,4-dihydro-2H-1,4-benzothiazin-4-yl)ethoxy]phenyl]-2-ethoxy propanoic acid] | – | 55 | 3.0 | 9.8 | Reduction in Blood Glucose Level (%) (C57BL/KsJ-db/db mice): 56%; Triglyceride Lowering (%) (C57BL/KsJ-db/db mice): 59%; Ke1 [1]: 0.17 ± 0.03 h⁻¹; AUC(0-inf) ([1]; rat, plasma, 30 mg/kg): 320 ± 36.2 µg·h/mL; AUC(0-t) ([1]; rat, plasma, 30 mg/kg): 315 ± 34.7 µg·h/mL; Cmax ([1]; rat, plasma, 30 mg/kg): 77.2 ± 24.1 µg/mL; Tmax ([1]; rat, plasma, 30 mg/kg): 37.8 ± 15 min; half-life ([1]; rat, plasma, 30 mg/kg): 255 ± 51.6 min
8 | CCO[C@@H](Cc1ccc(OCCN2CCSc3ccccc32)cc1)C(=O)O [Example 3, Dicyclohexylamine salt of (−)-3-[4-[2-(3,4-dihydro-2H-1,4-benzothiazin-4-yl)ethoxy]phenyl]-2-ethoxy propanoic acid] | – | – | 5.2 | 19 | –
9 | CCO[C@@H](Cc1ccc(OCCN2CCSc3ccccc32)cc1)C(=O)O [Example 5, -Lysine salt of (−)-3-[4-[2-(3,4-dihydro-2H-1,4-benzothiazin-4-yl)ethoxy]phenyl]-2-ethoxy propanoic acid] | – | 46 | 3.5 | 7.6 | –
10 | CCO[C@@H](Cc1ccc(OCCN2CCSc3ccccc32)cc1)C(=O)O [Example 6, Amino guanidine hydrogen carbonate salt of (−)-3-[4-[2-(3,4-dihydro-2H-1,4-benzothiazin-4-yl)ethoxy]phenyl]-2-ethoxy propanoic acid] | – | – | 4.7 | 21 | –
